Blank lines part the entries; values can stand above or below the molecule they belong to.
How the values were obtained:
[1] = biological target: Dual specificity protein kinase CLK3 (Homo sapiens, UniProt P49761); experiment: Selectivity interaction (SelectScreen profiling (Invitrogen)) EUB0000607a CLK3; conditions: at 2 µM
[2] = biological target: Tyrosine-protein kinase Fer (Homo sapiens) (UniProt P16591); experiment: Selectivity interaction (SelectScreen profiling (Invitrogen)) EUB0000607a FER; conditions: at 2 µM
Chain of Tyrosine-protein kinase Fer (Homo sapiens) (P16591 whole entry, looked up): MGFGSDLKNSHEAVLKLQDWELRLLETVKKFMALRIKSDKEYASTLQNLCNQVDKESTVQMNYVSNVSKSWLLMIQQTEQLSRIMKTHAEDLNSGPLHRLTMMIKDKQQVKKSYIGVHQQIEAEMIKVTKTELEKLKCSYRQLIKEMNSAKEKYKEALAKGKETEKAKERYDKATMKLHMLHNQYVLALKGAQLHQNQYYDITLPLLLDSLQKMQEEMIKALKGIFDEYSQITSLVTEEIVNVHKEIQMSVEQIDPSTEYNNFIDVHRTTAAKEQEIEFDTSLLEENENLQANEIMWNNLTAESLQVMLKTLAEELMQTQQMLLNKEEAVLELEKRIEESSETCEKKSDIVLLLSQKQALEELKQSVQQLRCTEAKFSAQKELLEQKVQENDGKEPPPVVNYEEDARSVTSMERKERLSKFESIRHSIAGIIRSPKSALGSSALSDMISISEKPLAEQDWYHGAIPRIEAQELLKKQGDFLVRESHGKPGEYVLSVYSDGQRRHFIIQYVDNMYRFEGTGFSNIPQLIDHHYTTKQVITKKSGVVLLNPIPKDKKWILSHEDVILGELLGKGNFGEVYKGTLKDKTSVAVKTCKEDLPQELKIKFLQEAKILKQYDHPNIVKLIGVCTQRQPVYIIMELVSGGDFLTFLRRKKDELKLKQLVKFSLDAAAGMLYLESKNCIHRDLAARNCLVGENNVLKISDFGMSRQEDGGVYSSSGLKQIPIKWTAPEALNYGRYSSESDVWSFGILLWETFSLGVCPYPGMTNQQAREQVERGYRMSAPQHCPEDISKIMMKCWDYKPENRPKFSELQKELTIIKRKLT

[3] = biological target: T1, Mitogen-activated protein kinase kinase kinase kinase 2 (Homo sapiens) (UniProt Q12851); experiment: Selectivity interaction (KinomeScan (DiscoverX)) EUB0000607a MAP4K2; conditions: at 10 µM
T1 sequence (whole entry): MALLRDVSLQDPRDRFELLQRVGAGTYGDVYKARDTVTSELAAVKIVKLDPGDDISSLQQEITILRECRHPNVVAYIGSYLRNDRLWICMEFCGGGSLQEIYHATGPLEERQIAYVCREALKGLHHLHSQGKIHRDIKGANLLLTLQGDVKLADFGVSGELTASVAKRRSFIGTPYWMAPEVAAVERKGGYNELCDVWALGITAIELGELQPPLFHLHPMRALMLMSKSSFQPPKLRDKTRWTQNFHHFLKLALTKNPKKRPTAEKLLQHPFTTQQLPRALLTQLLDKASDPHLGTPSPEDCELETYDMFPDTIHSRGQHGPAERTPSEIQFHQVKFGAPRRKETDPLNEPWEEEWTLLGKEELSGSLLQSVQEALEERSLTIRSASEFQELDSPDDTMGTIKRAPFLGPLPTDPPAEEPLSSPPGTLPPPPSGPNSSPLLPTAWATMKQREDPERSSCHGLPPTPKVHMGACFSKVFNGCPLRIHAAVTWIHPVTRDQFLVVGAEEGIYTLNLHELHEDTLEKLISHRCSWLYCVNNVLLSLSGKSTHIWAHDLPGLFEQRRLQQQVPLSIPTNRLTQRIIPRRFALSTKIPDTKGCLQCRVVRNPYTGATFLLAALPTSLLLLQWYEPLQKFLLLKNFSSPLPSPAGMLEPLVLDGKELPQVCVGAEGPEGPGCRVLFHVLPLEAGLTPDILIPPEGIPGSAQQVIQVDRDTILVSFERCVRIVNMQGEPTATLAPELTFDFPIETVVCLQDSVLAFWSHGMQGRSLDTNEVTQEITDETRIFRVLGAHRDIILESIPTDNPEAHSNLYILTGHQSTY

[4] = biological target: Serine/threonine-protein kinase tousled-like 2 (Homo sapiens) (UniProt Q86UE8); experiment: Selectivity interaction (ActivX KiNativ screen (ex vivo kinase selectivity in human PBMCs)) EUB0001619a TLK2; type: cell-based; conditions: PBMC, at 1 µM
Chain of Serine/threonine-protein kinase tousled-like 2 (Homo sapiens) (Q86UE8 whole entry, looked up): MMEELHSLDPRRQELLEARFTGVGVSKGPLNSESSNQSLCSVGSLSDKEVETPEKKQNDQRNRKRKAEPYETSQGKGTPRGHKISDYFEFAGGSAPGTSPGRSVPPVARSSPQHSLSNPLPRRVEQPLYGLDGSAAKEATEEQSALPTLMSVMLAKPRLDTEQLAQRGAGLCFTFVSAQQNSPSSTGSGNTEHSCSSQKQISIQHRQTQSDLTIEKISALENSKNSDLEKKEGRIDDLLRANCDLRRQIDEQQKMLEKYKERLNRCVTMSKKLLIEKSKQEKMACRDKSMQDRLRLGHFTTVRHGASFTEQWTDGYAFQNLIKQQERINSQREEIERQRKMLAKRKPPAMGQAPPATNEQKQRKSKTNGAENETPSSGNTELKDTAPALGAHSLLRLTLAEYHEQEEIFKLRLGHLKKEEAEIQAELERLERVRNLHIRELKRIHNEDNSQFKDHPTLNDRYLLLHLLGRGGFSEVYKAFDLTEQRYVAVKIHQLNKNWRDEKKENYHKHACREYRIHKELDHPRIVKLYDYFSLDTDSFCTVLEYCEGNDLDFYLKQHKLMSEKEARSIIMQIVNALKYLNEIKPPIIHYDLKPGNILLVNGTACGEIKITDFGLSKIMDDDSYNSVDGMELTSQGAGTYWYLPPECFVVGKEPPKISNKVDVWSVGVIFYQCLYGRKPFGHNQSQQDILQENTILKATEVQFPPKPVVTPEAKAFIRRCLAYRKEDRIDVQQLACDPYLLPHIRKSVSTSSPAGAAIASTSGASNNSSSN

[5] = biological target: Casein kinase II subunit alpha (Homo sapiens, UniProt P68400); experiment: Selectivity interaction (Kinase panel (DSF assay)) EUB0001558a CSNK2A1
Chain of Casein kinase II subunit alpha (P68400 whole entry, looked up): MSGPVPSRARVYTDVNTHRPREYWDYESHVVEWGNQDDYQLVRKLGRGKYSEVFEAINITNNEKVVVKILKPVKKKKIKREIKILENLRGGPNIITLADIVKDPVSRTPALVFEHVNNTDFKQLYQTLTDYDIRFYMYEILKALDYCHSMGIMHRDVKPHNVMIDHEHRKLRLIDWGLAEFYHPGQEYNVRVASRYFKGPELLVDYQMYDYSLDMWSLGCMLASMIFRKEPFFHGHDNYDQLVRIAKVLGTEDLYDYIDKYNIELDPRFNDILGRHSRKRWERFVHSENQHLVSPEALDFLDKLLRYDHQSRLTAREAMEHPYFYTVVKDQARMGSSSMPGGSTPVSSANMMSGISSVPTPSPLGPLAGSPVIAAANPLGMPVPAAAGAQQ

[6] = biological target: Transient receptor potential cation channel subfamily M member 6 (Homo sapiens) (UniProt Q9BX84); experiment: Selectivity interaction (KinomeScan (DiscoverX)) EUB0000595a TRPM6; conditions: at 10 µM
[7] = biological target: Cyclin-dependent kinase 9 (Homo sapiens, UniProt P50750); experiment: Selectivity interaction (Kinase panel (Invitrogen)) EUB0000639a CDK9; conditions: at 200 nM
Chain of Cyclin-dependent kinase 9 (P50750 whole entry): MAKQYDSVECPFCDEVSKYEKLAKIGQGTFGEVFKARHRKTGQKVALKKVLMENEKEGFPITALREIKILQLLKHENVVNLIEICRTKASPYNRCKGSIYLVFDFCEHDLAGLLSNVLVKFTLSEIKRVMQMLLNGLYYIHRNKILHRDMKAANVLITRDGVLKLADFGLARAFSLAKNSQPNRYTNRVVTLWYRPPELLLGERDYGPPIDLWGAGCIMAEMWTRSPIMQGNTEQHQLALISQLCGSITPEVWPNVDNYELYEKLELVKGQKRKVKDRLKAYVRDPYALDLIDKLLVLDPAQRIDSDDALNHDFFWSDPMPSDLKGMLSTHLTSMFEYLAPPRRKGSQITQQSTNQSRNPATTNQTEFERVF

[8] = biological target: T2, STE20-related kinase adapter protein alpha (Homo sapiens) (UniProt Q7RTN6); experiment: Selectivity interaction (ActivX KiNativ screen (kinase selectivity in THP-1 cell lysates)) EUB0000639a STRADA; type: subcellular; conditions: lysate, at 5 µM
T2 sequence (whole entry): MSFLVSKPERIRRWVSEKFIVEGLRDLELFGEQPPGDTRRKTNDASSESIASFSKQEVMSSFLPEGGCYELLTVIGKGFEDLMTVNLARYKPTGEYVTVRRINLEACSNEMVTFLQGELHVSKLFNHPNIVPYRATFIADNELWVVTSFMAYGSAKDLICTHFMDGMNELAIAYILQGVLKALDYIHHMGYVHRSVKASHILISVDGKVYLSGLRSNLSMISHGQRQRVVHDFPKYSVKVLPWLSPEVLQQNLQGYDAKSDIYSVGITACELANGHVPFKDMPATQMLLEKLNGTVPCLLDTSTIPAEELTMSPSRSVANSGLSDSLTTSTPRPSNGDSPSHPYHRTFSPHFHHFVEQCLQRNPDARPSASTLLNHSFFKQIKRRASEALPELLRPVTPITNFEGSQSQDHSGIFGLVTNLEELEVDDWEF

[9] = biological target: Mitotic checkpoint serine/threonine-protein kinase BUB1 (Homo sapiens, UniProt O43683); experiment: Selectivity interaction (KinomeScan (DiscoverX)) EUB0001049a BUB1; conditions: at 1 µM
[10] = biological target: T3, Dual specificity mitogen-activated protein kinase kinase 6 (Homo sapiens) (UniProt P52564); experiment: Selectivity interaction (Kinase panel (Z-LYTE Assay)) EUB0001632a MAP2K6; conditions: at 10 µM
T3 sequence (whole entry): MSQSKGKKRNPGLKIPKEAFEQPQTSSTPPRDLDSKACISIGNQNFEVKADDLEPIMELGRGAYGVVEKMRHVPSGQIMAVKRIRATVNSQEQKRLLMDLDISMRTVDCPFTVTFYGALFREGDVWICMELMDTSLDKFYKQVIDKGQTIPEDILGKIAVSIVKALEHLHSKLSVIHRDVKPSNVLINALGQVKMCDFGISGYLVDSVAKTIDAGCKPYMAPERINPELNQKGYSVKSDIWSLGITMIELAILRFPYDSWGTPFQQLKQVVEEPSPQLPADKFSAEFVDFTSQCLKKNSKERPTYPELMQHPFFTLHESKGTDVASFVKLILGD

[11] = biological target: Macrophage-stimulating protein receptor (Homo sapiens, UniProt Q04912); experiment: Selectivity interaction (Kinase panel (Z-LYTE Assay)) EUB0001632a MST1R; conditions: at 10 µM
Chain of Macrophage-stimulating protein receptor (Q04912 25-304 limits assumed): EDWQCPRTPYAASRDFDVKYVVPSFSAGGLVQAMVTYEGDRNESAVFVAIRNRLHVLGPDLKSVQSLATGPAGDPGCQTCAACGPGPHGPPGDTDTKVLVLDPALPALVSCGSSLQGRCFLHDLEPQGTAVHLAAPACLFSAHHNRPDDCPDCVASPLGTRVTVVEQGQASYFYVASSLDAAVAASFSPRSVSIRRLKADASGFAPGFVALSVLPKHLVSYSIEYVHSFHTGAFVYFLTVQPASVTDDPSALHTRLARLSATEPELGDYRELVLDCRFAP
Chain of Macrophage-stimulating protein receptor (Q04912 310-1400 limits assumed): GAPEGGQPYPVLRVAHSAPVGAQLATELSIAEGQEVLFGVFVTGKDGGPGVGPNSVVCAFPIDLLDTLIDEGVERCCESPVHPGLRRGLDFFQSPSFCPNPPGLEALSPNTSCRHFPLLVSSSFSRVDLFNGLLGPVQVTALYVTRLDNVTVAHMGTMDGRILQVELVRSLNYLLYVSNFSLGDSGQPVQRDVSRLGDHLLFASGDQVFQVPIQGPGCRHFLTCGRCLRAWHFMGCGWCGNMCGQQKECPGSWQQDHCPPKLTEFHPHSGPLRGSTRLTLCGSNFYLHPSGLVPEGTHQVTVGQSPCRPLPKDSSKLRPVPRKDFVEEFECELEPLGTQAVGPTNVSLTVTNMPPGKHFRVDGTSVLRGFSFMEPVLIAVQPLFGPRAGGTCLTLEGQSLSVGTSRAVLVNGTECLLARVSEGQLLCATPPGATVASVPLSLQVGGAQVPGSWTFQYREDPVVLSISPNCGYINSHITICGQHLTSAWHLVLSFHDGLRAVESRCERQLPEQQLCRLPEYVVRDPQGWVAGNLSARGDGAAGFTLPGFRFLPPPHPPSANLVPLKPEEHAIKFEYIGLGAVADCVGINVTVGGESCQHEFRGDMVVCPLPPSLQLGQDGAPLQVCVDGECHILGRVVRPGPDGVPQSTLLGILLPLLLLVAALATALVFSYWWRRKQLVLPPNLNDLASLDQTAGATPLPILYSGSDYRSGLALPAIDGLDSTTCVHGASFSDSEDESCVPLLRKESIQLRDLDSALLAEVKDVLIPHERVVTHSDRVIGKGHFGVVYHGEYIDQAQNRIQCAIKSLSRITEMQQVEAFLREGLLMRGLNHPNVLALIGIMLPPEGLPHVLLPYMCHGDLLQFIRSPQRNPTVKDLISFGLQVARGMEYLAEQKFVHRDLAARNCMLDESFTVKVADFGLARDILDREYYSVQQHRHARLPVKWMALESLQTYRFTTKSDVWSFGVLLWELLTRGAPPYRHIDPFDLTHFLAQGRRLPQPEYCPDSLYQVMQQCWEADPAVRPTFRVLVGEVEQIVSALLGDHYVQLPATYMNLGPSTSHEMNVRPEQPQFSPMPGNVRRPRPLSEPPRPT

Chain of Dual specificity protein kinase CLK3 (P49761 whole entry, looked up): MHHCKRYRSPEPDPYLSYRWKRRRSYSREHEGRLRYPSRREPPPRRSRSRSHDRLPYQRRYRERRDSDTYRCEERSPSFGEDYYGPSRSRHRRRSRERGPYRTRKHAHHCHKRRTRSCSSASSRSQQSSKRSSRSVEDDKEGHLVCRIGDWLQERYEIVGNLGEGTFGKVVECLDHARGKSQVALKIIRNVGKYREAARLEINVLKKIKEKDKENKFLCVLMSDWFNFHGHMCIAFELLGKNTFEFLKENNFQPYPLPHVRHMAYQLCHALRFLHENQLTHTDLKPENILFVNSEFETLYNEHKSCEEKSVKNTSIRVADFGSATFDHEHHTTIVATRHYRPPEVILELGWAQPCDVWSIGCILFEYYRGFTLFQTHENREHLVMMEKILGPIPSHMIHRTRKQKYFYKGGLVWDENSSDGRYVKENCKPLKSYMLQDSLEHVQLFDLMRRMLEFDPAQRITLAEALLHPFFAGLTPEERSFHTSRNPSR

SMILES: CNC(=O)Nc1ccc(-c2nc(N3CC4CCC(C3)O4)c3cnn(C4CCC5(CC4)OCCO5)c3n2)cc1
- % of inhibition [1]: 2%
- % of inhibition [2]: 5%
- % of control [3]: 100%

SMILES: N#Cc1cccc(-c2c[nH]c3ncnc(N4CCOCC4)c23)c1
- % of inhibition [4]: 6%

SMILES: CC(C)(O)[C@H](F)CN1Cc2cc(NC(=O)c3cnn4cccnc34)c(N3CCOCC3)cc2C1=O
- dTM [5]: 0.3 K

SMILES: COCC(=O)NC/C=C/c1ccc2ncnc(Nc3ccc(Oc4ccc(C)nc4)c(C)c3)c2c1 [CP-724714]
- % of control [6]: 100%

- % of inhibition [7]: 4.37%
- % of inhibition [8]: -29.5%
SMILES: CC[C@@H]1[C@H](F)C(=O)N[C@@H]1COc1nccc2cc(C(N)=O)c(OC)cc12 [ZIMLOVISERTIB]

SMILES: COc1cc(Nc2nc(C)cc(-c3cnn4nc(OC)ccc34)n2)cc(C(F)(F)F)c1
- % of control [9]: 67%

- % of control [10]: 5.11%
- % of control [11]: -2.62%
SMILES: Cn1cc(-n2cnc3c(NCc4nc5cc(Cl)c(Cl)cc5[nH]4)nc(N4CCOCC4)nc32)cn1
